Experimental data as given in publication PMC3006138, “Fexinidazole – A New Oral Nitroimidazole Drug Candidate Entering Clinical Development for the Treatment of Sleeping Sickness” (PLoS Neglected Tropical Diseases, 2010).
Read-outs that look alike come from different tables or passages of the source.

Assay: Rat 28-day toxicokinetics
Format: in vivo
Conditions: plasma, po; for half-life: read-out: apparent terminal half-life (converted); for AUC: read-out: AUC within 24 hours post dosing
Experimental: In the rat repeated-dose toxicokinetic study, fexinidazole was administered orally by gavage once a day for 28 consecutive days to ten or fifteen Crl:CD (SD)IGS BR rats/sex/group at doses of 50, 200, or 800 mg/kg/day. A control group received the vehicle alone (5% Tween 80/0.5% methocel). Ten animals/sex/group were sacrificed at the end of the treatment period on day 29 or 30 of study. The remaining 5 animals/sex/group in the control and high-dose groups were sacrificed on day 43 at the end of a 2-weeks observation period. Systemic exposure to fexinidazole and its sulfoxide and sulfone metabolites was evaluated in three additional animals/sex/group. Samples were taken at predose, and 30 min, 1, 2, 4, 8 and 24 h after dosing on days 1, 14, and 28, and in addition at 48 and 72 h after treatment on day 28.
Toxicokinetic Report for the study No. 0504-2007
SD Standard deviation of the mean […]
t1/2,z Terminal half-life tmax Time to peak plasma concentration
ULOQ Upper limit of quantification
The study was conducted according to the study protocol and related amendment.
Fexinidazole was orally given by gavage once a day for 28 days to male and female Sprague Dawley rats according to the following scheme
Fexinidazole was suspended with 5% Tween 80 in 0.5% Methyl cellulose 400 cP.
6.2. Sample Collection and Handling
Blood samples (about 0.25 mL/sampling time) were withdrawn from retro-orbital sinus plexus under isofluorane anesthesia and put in heparinized plastic tubes kept on a ice-water bath, then centrifuged for 10 min at 1200g at +4°C and two aliquots of about 50 μL of plasma were stored in a freezer at -80°C until analysis. Blood was taken from three rats/gender/dose on Days 1 and 14 at pre-dose and 0.5, 1, 2, 4, 8 and 24 hours after dosing, on Day 28 at pre-dose and 1, 2, 4, 8, 24, 48 and 72 hours after dosing. After the administration of the vehicle, the samples were taken from three rats/gender at pre-dose and […]
6.3. Bioanalytical Method
Rat plasma concentrations of Fexinidazole and its sulfoxide (M1) and sulfone (M2) metabolites were determined by a validated LC/MS/MS method. The calibration range for the assay was 5-1000 ng/mL for Fexinidazole and 25-25000 ng/mL for M1 and M2.
Study samples containing analytes concentrations above the upper limit of quantitation were diluted with blank matrix prior to analysis.
6.4. Pharmacokinetic Calculations
Pharmacokinetic evaluation was carried out using non-compartmental approach with the aid […]
Excel spreadsheet (Microsoft Inc., Seattle, USA). […]
In the calculations, the undetectable concentrations between detectable ones were ignored.
After each dose level, Cmax and tmax of Fexinidazole and sulfoxide and sulfone metabolites […]
linear trapezoidal rule up to the last detectable concentration. On Day 28, since the blood […]
24 hours post dosing was calculated and denoted AUC0-24. This AUC was calculated in order to compare AUC values on Day 28 to those on Day 1 and Day 14. On Day 28, in addition, the half-life of the terminal phase, t1/2,z, was determined by linear regression analysis of the natural-log concentration vs. time curve, where t1/2,z = ln(2)/slope of the regression line.
Fexinidazole and metabolites accumulation ratios, based on Cmax (RA,Cmax), AUC0-24 (RA,AUC0-24) and AUC0-t(last) (RA,AUC0-t(last)), were calculated as the ratio between the parameters obtained on Day 14 and Day 28 to the corresponding one at Day 1. […]
pharmacokinetic parameters of each compound sorted by dose, gender and day of dosing. […]
compound are reported in Tables 1 and 2, whilst individual and mean parameters of each […]
Individual and mean (±SD, CV%) plasma
2A1 - 19A1 of Appendix 1. Individual plasma concentrations of Fexinidazole and both metabolites are plot in Figures 1 - 9, whilst the mean concentrations are plot in Figures 10 - 15. Mean normalized Cmax and AUC0-t(last) values of Fexinidazole and metabolites vs. dose are plot in Figures 16 - 21.
In-study bioanalytical validation data are reported in Appendix 2. All analytical batches met […]

[1] = Sprague-Dawley (Crl:CD (SD)IGS BR), 50 mg/kg/day, 50 mg/kg/day po, day 1
[2] = Sprague-Dawley (Crl:CD (SD)IGS BR), 50 mg/kg/day, 50 mg/kg/day po, day 14
[3] = Sprague-Dawley (Crl:CD (SD)IGS BR), 200 mg/kg/day, 200 mg/kg/day po, day 1
[4] = both sexes, Sprague-Dawley (Crl:CD (SD)IGS BR), 200 mg/kg/day, 200 mg/kg/day po, day 14
[5] = both sexes, Sprague-Dawley (Crl:CD (SD)IGS BR), 800 mg/kg/day, 800 mg/kg/day po, day 1
[6] = both sexes, Sprague-Dawley (Crl:CD (SD)IGS BR), 800 mg/kg/day, 800 mg/kg/day po, day 14

Cn1c([N+](=O)[O-])cnc1COc1ccc(S(C)(=O)=O)cc1 [Fexinidazole sulfone]
half-life (Sprague Dawley (Crl:CD (SD)IGS BR), 50 mg/kg/day, Day 28, female): 13 h
half-life (Sprague Dawley (Crl:CD (SD)IGS BR), 50 mg/kg/day, Day 28, male): 6.1 ± 1.2 h
half-life (Sprague Dawley (Crl:CD (SD)IGS BR), 200 mg/kg/day, Day 28, female): 7.3 h
half-life (Sprague Dawley (Crl:CD (SD)IGS BR), 200 mg/kg/day, Day 28, male): 7.5 h
half-life (Sprague Dawley (Crl:CD (SD)IGS BR), 800 mg/kg/day, Day 28, female (n=2)): 11 h
half-life (Sprague Dawley (Crl:CD (SD)IGS BR), 800 mg/kg/day, Day 28, male): 10 h
Cmax [1]: 2920 ± 2260 ng/mL
Tmax [1]: 7.33 ± 1.63 h
AUC(0-t) (Sprague-Dawley (Crl:CD (SD)IGS BR), 50 mg/kg/day, 50 mg/kg/day po, day 1, read-out: AUC0-t(last)): 36.1 ± 28.6 µg·h/mL
Cmax [2]: 6380 ± 2300 ng/mL
Tmax [2]: 6 ± 2.19 h
AUC(0-t) (Sprague-Dawley (Crl:CD (SD)IGS BR), 50 mg/kg/day, 50 mg/kg/day po, day 14, read-out: AUC0-t(last)): 89.6 ± 34.1 µg·h/mL
AUC (Sprague-Dawley (Crl:CD (SD)IGS BR), 50 mg/kg/day, Day 28, female): 175 µg·h/mL
AUC (Sprague-Dawley (Crl:CD (SD)IGS BR), 50 mg/kg/day, Day 28, male): 106 µg·h/mL
Cmax [3]: 9290 ± 1750 ng/mL
Tmax [3]: 8 h
AUC (Sprague-Dawley (Crl:CD (SD)IGS BR), 200 mg/kg/day, Day 28, female): 341 µg·h/mL
AUC (Sprague-Dawley (Crl:CD (SD)IGS BR), 200 mg/kg/day, Day 28, male): 341 µg·h/mL
AUC (Sprague-Dawley (Crl:CD (SD)IGS BR), 800 mg/kg/day, Day 28, female (n=2)): 572 µg·h/mL
AUC (Sprague-Dawley (Crl:CD (SD)IGS BR), 800 mg/kg/day, Day 28, male): 459 µg·h/mL
AUC(0-t) (both sexes, Sprague-Dawley (Crl:CD (SD)IGS BR), 200 mg/kg/day, 200 mg/kg/day po, day 1, read-out: AUC0-t(last)): 126 ± 17.5 µg·h/mL
Cmax [4]: 20200 ± 2420 ng/mL
Tmax [4]: 7.33 ± 1.63 h
AUC(0-t) (both sexes, Sprague-Dawley (Crl:CD (SD)IGS BR), 200 mg/kg/day, 200 mg/kg/day po, day 14, read-out: AUC0-t(last)): 287 ± 36.5 µg·h/mL
Cmax [5]: 42600 ± 13100 ng/mL
Tmax [5]: 10.7 ± 6.53 h
AUC(0-t) (both sexes, Sprague-Dawley (Crl:CD (SD)IGS BR), 800 mg/kg/day, 800 mg/kg/day po, day 1, read-out: AUC0-t(last)): 574 ± 256 µg·h/mL
Cmax [6]: 40500 ± 13000 ng/mL
Tmax [6]: 6.67 ± 2.07 h
AUC(0-t) (both sexes, Sprague-Dawley (Crl:CD (SD)IGS BR), 800 mg/kg/day, 800 mg/kg/day po, day 14, read-out: AUC0-t(last)): 543 ± 252 µg·h/mL
Cmax (female, Sprague Dawley (Crl:CD (SD)IGS BR), 50 mg/kg, Day 1, female): 4420 ± 2410 ng/mL
AUC(0-t) (female, Sprague Dawley (Crl:CD (SD)IGS BR), 50 mg/kg, Day 1, female, read-out: AUC0-t(last)): 55.8 ± 28.1 µg·h/mL
Cmax (female, Sprague Dawley (Crl:CD (SD)IGS BR), 50 mg/kg/day, Day 28, female): 10700 ng/mL
Cmax (female, Sprague Dawley (Crl:CD (SD)IGS BR), 200 mg/kg, Day 1, female): 10000 ± 815 ng/mL
AUC(0-t) (female, Sprague Dawley (Crl:CD (SD)IGS BR), 200 mg/kg, Day 1, female, read-out: AUC0-t(last)): 134 ± 10.8 µg·h/mL
Cmax (female, Sprague Dawley (Crl:CD (SD)IGS BR), 200 mg/kg/day, Day 28, female): 21400 ng/mL
Cmax (female, Sprague Dawley (Crl:CD (SD)IGS BR), 800 mg/kg, Day 1, female): 44800 ± 20100 ng/mL
AUC(0-t) (female, Sprague Dawley (Crl:CD (SD)IGS BR), 800 mg/kg, Day 1, female, read-out: AUC0-t(last)): 683 ± 241 µg·h/mL
Cmax (female, Sprague Dawley (Crl:CD (SD)IGS BR), 800 mg/kg/day, Day 28, female (n=2)): 41900 ng/mL
AUC(0-t) (female, Sprague-Dawley (Crl:CD (SD)IGS BR), 50 mg/kg/day, Day 28, female, read-out: AUC0-t(last)): 197 µg·h/mL
AUC(0-t) (female, Sprague-Dawley (Crl:CD (SD)IGS BR), 200 mg/kg/day, Day 28, female, read-out: AUC0-t(last)): 448 µg·h/mL
AUC(0-t) (female, Sprague-Dawley (Crl:CD (SD)IGS BR), 800 mg/kg/day, Day 28, female (n=2), read-out: AUC0-t(last)): 738 µg·h/mL
Cmax (male, Sprague Dawley (Crl:CD (SD)IGS BR), 50 mg/kg, Day 1, male): 1420 ± 393 ng/mL
AUC(0-t) (male, Sprague Dawley (Crl:CD (SD)IGS BR), 50 mg/kg, Day 1, male, read-out: AUC0-t(last)): 16.5 ± 9.76 µg·h/mL
Cmax (male, Sprague Dawley (Crl:CD (SD)IGS BR), 50 mg/kg/day, Day 28, male): 7750 ng/mL
Cmax (male, Sprague Dawley (Crl:CD (SD)IGS BR), 200 mg/kg, Day 1, male): 8550 ± 2310 ng/mL
AUC(0-t) (male, Sprague Dawley (Crl:CD (SD)IGS BR), 200 mg/kg, Day 1, male, read-out: AUC0-t(last)): 119 ± 21.9 µg·h/mL
Cmax (male, Sprague Dawley (Crl:CD (SD)IGS BR), 200 mg/kg/day, Day 28, male): 24200 ng/mL
Cmax (male, Sprague Dawley (Crl:CD (SD)IGS BR), 800 mg/kg, Day 1, male): 40300 ± 1560 ng/mL
AUC(0-t) (male, Sprague Dawley (Crl:CD (SD)IGS BR), 800 mg/kg, Day 1, male, read-out: AUC0-t(last)): 465 ± 264 µg·h/mL
Cmax (male, Sprague Dawley (Crl:CD (SD)IGS BR), 800 mg/kg/day, Day 28, male): 33000 ng/mL
AUC(0-t) (male, Sprague-Dawley (Crl:CD (SD)IGS BR), 50 mg/kg/day, Day 28, male, read-out: AUC0-t(last)): 113 µg·h/mL
AUC(0-t) (male, Sprague-Dawley (Crl:CD (SD)IGS BR), 200 mg/kg/day, Day 28, male, read-out: AUC0-t(last)): 387 µg·h/mL
AUC(0-t) (male, Sprague-Dawley (Crl:CD (SD)IGS BR), 800 mg/kg/day, Day 28, male, read-out: AUC0-t(last)): 509 µg·h/mL
